This note sets out measurements from US12263171B2, “7-, 8-, and 10-substituted amino triazolo quinazoline derivatives as adenosine receptor antagonists, pharmaceutical compositions and their use” (Merck Sharp & Dohme LLC, priority 2018, dated 2025).

Test [1] deals with T1, human A2b adenosine receptor (Homo sapiens (Human), UniProt P29275). The test is described as follows: A2B antagonism in cAMP cell-based assay (LANCE cAMP, HEK293 cells, 600 nM adenosine). To be noted: for IC50: values marked *: cAMP cell-based assay. Background: Time-resolved FRET reads energy transfer from a long-lived donor to a nearby acceptor.
Test [2] deals with human A2a adenosine receptor (Homo sapiens (Human), UniProt P29274). The test is described as follows: A2A antagonism in cAMP cell-based assay (LANCE cAMP, HEK293 cells, 300 nM adenosine). The settings on record: values marked *: cAMP cell-based assay. Here is the method:
Measurement of A2A and A2B Antagonism in cAMP Cell-Based Assay
All subsequent liquid additions were performed using a multichannel pipettor. […] After this time 5 μL of either 300 nM or 600 nM adenosine (Sigma Cat. No. A9251) for A2A and A2B respectively was added and incubated for 30 minutes at 37° C. and 5% CO2 in a humidified environment. At this time detection mix was prepared by combining the LANCE Eu-W8044 labeled streptavidin and. Biotin-cAMP in detection buffer according to the manufacturers protocol. […] Curve fitting of the percent effect data versus the log of compound concentration used a 4-parameter concentration response curve fitting algorithm to calculate IC50 values.

The target in test [3] is T1, human A2b adenosine receptor. The test is described as follows: A2b radioligand filtration binding assay (tritiated proprietary A2b antagonist, HEK293 membranes). The settings on record: @ 10000 nM, unstarred. Put shortly: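 Displacement of a tritiated proprietary A2b antagonist from membranes of HEK293 cells recombinantly expressing human A2b receptor, measured by filtration and scintillation counting. Percent effect was normalized to total and non-specific binding and fitted with a 4-parameter logistic to give IC50.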

Bounds are passed on as bounds.

T1 sequence (P29275 whole entry): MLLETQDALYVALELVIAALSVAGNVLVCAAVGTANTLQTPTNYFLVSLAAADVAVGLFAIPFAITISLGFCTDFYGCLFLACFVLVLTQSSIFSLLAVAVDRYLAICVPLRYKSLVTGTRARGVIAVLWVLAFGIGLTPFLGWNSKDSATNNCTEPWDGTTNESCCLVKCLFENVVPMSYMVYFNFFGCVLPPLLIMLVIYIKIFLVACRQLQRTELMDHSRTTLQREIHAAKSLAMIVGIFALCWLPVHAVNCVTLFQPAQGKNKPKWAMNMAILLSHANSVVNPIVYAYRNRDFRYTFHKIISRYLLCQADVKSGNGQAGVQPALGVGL
human A2a adenosine receptor, sequence (P29274 whole entry): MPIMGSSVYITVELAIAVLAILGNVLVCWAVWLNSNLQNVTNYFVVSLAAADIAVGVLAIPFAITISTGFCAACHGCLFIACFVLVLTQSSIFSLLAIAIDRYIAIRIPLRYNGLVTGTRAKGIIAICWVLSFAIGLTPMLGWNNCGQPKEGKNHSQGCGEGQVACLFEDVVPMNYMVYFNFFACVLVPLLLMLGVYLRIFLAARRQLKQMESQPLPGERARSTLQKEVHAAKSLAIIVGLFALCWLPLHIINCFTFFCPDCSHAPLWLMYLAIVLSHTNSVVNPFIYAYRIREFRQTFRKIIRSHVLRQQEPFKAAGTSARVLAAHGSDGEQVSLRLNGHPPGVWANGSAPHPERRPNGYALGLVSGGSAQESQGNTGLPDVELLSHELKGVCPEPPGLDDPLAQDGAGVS

As for `COc1cccc2c1nc(N)n1nc([C@H]3CC[C@@H](C)N(c4cn(CC(C)(C)O)nc4C)C3)nc21` [Example 145D, 1-(4-((2R,5S)-5-(5-amino-7-methoxy-[1,2,4]triazolo[1,5-c]quinazolin-2-yl)-2-methylpiperidin-1-yl)-3-methyl-1H-pyrazol-1-yl)-2-methylpropan-2-ol], the figures for the IC50 in test [1] and in test [2] were 0.461 µM and 0.0303 µM, respectively.

Consider `COc1cccc2c1nc(N)n1nc(C3CCC(C)N(c4cnn(C(C)(C)CO)c4)C3)nc21` (single isomer, unassigned) [Example 146C], for which the IC50 in test [1] was 2.2 µM; in test [2], 0.101 µM.

`COc1ccc2c(c1)nc(N)n1nc([C@@H]3C[C@@H](C(F)(F)F)CN(c4cnn(CC(C)(C)O)c4)C3)nc21` (single isomer, unassigned) [Example 218B, 1-(4-((3R,5R or 3S,5S)-3-(5-amino-8-methoxy-[1,2,4]triazolo[1,5-c]quinazolin-2-yl)-5-(trifluoromethyl)piperidin-1-yl)-1H-pyrazol-1-yl)-2-methylpropan-2-ol]: the IC50 was above 10 µM in test [1] and 0.635 µM in test [2].

With `COc1cccc2c1nc(N)n1nc([C@@H]3CCCN(c4cc(C(F)(F)F)ccn4)C3)nc21` [Example 116, (R)-7-melhoxy-2-(1-(4-(trifluoromethyl)pyridin-2-yl)piperidin-3-yl)-[1,2,4]triazolo[1,5-c]quinazolin-5-amine], in test [3], the “A2B binding % inh. @ 10000 nM” value was 18% inh. @ 10000 nM. Further, inhibition in test [2] was half-maximal at 0.0405 µM (IC50).

For the compound `COc1ccc2c(c1)nc(N)n1nc([C@H]3C[C@@H](C)CN(c4cn([C@H](C)[C@@H](C)O)nc4C)C3)nc21` [Example 219C, (2R,3R)-3-(4-((3S,5R)-3-(5-amino-8-methoxy-[1,2,4]triazolo[1,5-c]quinazolin-2-yl)-5-methylpiperidin-1-yl)-3-methyl-1H-pyrazol-1-yl)butan-2-ol], the 50% inhibitory concentration (IC50) is 5.65 µM in test [1] and 0.0386 µM in test [2].

For `COc1ccc2c(c1)nc(N)n1nc([C@H]3C[C@H](C)CN(c4cnn(C(C)(C)CO)c4)C3)nc21` [Example 222B, 2-(4-((3S,5S)-3-(5-amino-8-methoxy-[1,2,4]triazolo[1,5-c]quinazolin-2-yl)-5-methylpiperidin-1-yl)-1H-pyrazol-1-yl)-2-methylpropan-1-ol], the IC50 in test [1] came out at 1.72 µM; in test [2], 0.0638 µM.

In the case of `COc1ccc2c(c1)nc(N)n1nc([C@@H]3C[C@@H](C)CN(c4cnn(C(C)(C)CO)c4)C3)nc21` [Example 222D, 2-(4-((3R,5R)-3-(5-amino-8-methoxy-[1,2,4]triazolo[1,5-c]quinazolin-2-yl)-5-methylpiperidin-1-yl)-1H-pyrazol-1-yl)-2-methylpropan-1-ol], the IC50 worked out at 0.655 µM in test [1] and 0.0333 µM in test [2].

For `COc1cccc2c1nc(N)n1nc([C@@H]3CCCN(c4ccc(C(F)(F)F)cn4)C3)nc21` [Example 118, (R)-7-methoxy-2-(1-(5-(trifluoromethyl)pyridin-2-yl)piperidin-3-yl)-[1,2,4]triazolo[1,5-c]quinazolin-5-amine], the IC50 in test [1] came to 0.105 µM; in test [2], 0.0106 µM.

As for `COc1ccc2c(c1)nc(N)n1nc([C@@H]3C[C@H](C)CN(c4cn([C@@H](C)[C@H](C)O)nc4C)C3)nc21` [Example 219D, (2S,3S)-3-(4-((3R,5S)-3-(5-amino-8-methoxy-[1,2,4]triazolo[1,5-c]quinazolin-2-yl)-5-methylpiperidin-1-yl)-3-methyl-1H-pyrazol-1-yl)butan-2-ol], the “*A2B cAMP % inh. @ 10000 nM” value in test [1] (@ 10000 nM, marked *) stood at 33% inh. @ 10000 nM*. In addition, the IC50 in test [2] is 0.0443 µM.

As a reminder, the IC50 is the concentration at which inhibition is half-maximal. High values mean lower potency, low ones higher potency.
